This is an account of results in EPA's ToxValDB 9.5.

≈ marks a conversion by molar mass, not a printed value. A value given as a limit tells only on which side of the number the result lay.

Data set [1] deals with Pontoscolex corethrurus. The settings on record: acute; mortality.
In data set [2] the test system is Canidae.
In data set [3] the test system is Oryctolagus sp.
The test system of data set [4] is Rattus norvegicus.
The test system of data set [5] is Daphnia magna. The note with it: acute; mortality.
Data set [6] has as its system Colinus virginianus. The settings on record: for LD50: acute, oral, mortality.
For data set [7], the system named is Homo sapiens. The note with it: clinical.
The test system of data set [8] is Anas platyrhynchos. The settings on record: oral.
The subject of data set [9] is Oncorhynchus mykiss. The note with it: acute; duration: 96 hours; mortality.
Data set [10] concerns Sus scrofa. The note with it: short-term, oral, diet, Not specified.
Data set [11] deals with Mus musculus. The note with it: for NOAEL: repeat dose other.
Data set [12] has as its system Bovidae. The settings on record: subchronic, oral, diet.
The test system of data set [13] is Gallus gallus.
The mark [14] stands for this setting: chronic, duration: 1 years, oral, Dog Other, clinical chemistry.
Where [15] appears, read: reproduction developmental, reproduction.
Setting [16] is: subchronic, duration: 90 days, oral, diet.
Where [17] appears, read: subchronic, duration: 90 days, oral.

In turn, `CCc1nccnc1CC` [2,3-Diethylpyrazine] had an LC50 in data set [1] of 236 mg/kg.
Take `CC1=NNC(=O)N(/N=C/c2cccnc2)C1` [Pymetrozine]: the NOAEL came to 0.57 mg/kg-day in data set [2] (setting [14]); 3 mg/kg-day in [2] (subchronic, duration: 90 days, oral, diet, Beagle, organ weight); 10 mg/kg-day in [3] (reproduction developmental, histopathology: nonneoplastic).
`N#Cc1cc(Br)c(O)c(Br)c1` [Bromoxynil]: the NOAEL in data set [2] (chronic, duration: 1 years, oral, Dog Other, organ weight) is 0.3 mg/kg-day; in data set [4] (developmental, development) it was 4 mg/kg-day.
The compound `c1csc(SSc2cccs2)c1` [2-Thienyl disulfide] registered an NOAEL in data set [4] (subchronic, duration: 90 days) of 0.29 mg/kg-day and an NOAEL (repeat dose other) of 0.29 mg/kg-day.
With `Cc1csc(C(C)C)n1` [2-Isopropyl-4-methylthiazole], the LC50 in data set [5] came to 9 µg/mL (≈ 63.7 µM); in data set [1] it was 194 mg/kg.
For `O=C(NC(=O)c1c(F)cccc1F)Nc1ccc(Cl)cc1` [Diflubenzuron], the NOAEL in data set [2] (chronic, duration: 1 years, oral, Dog Other, hematological) worked out at 10 mg/kg-day. The LD50 in data set [4] (acute, dermal, mortality) is over 2000 mg/kg; in data set [4] (acute, oral, mortality), over 4640 mg/kg. The compound further yielded an LC50 in [4] (acute, duration: 4 hours, inhalation, mortality) of over 2.5 µg/mL.
In data set [4] (short-term, histopathology: nonneoplastic), `CCOP(=O)=O.CCOP(=O)=O.CCOP(=O)=O.[Al+3]` [Fosetyl aluminum] showed an NOAEL of 500 mg/kg-day. The compound further had an NOEC in [6] (setting [15]) of 216 mg/kg-day.
With `CCCC/C=C\CCO` [3-Octen-1-ol, (3Z)-], the LC50 in [1] is 194 mg/kg.
On to `CCCCCc1cc(O)c2c(c1)OC(C)(C)[C@@H]1CCC(C)=C[C@@H]21` [Tetrahydrocannabinol], for which, in data set [7] (duration: 12 weeks, oral, neurology), the LEL is 2.5 mg/day. In addition, the “LOAEL (mg/person-day)” value in data set [7] (oral, capsule, other) was found to be 2.5.
As to `CCc1occc(=O)c1O` [2-Ethyl-3-hydroxy-4-pyrone], the NOAEL (repeat dose other) stood at 200 mg/kg-day.
For `NC=O` [Formamide], the no observed adverse effect level (NOAEL) in data set [3] (reproduction developmental, duration: 13 days, oral, gavage, F, New Zealand, reproduction) was 34 mg/kg-day.
Consider `NC(Cc1ncn[nH]1)C(=O)O` (configuration not stated) [1,2,4-Triazole-3-alanine], for which the LD50 in [4] (acute, oral, mortality) was over 5000 mg/kg-day. Further, the NOAEL in data set [4] (chronic) was 100 mg/kg-day; in data set [4] (developmental, development) it was 100 mg/kg-day; in [3] (developmental, development) it was 30 mg/kg-day. Besides, in [8] (short-term, duration: 5 days, feed, mortality), the LC50 is over 1340 mg/kg-day.
Turning to `OC[C@@H](O)[C@@H](O)CO` [Erythritol], in data set [7] (duration: 27 months, oral, drinking water, clinical signs), the NOAEL was 710 mg/kg-day.
Take `CBr` [Methyl bromide]: the NOAEL came out at 0.27 mg/kg-day in [2] (chronic, duration: 1 years, oral, Dog Other); 0.13 mg/kg-day in data set [2] (setting [14]); 90 mg/kg-day in data set [4] (setting [15]). The LD50 was 104 mg/kg in [4] (acute, oral, mortality) and 73 mg/kg in data set [6]. In data set [9], this compound showed an LC50 of 3.9 µg/mL.
`CC(=O)[O-].CC(=O)[O-].O.O.O.O.[Co+2]` [Cobalt(II) acetate tetrahydrate] registered an LOAEL in [7] (duration: 22 days, oral, hematological) of 1 mg/kg-day.
For the compound `CC(=O)C(C)Sc1ccoc1C` (configuration not stated) [3-[(2-Methylfuran-3-yl)sulfanyl]butan-2-one], the no observed adverse effect level (NOAEL) in [4] (setting [16]) stood at 3.76 mg/kg-day and the no-observed-adverse-effect level (NOAEL) (subchronic, duration: 90 days) was determined as 3.76 mg/kg-day.
With `O=c1ccc2ccccc2o1` [Coumarin], the NOAEL in [2] (chronic, duration: 2 years, Dog Other, histopathology: nonneoplastic) turned out to be 10 mg/kg-day.
In turn, `CC1=C[C@H]2O[C@@H]3[C@H](O)C[C@](C)([C@@]2(CO)[C@H](O)C1=O)[C@@]31CO1` [Vomitoxin] had an LOEL in data set [10] (duration: 21 days, food consumption) of 0.35 mg/kg-day.
Under setting [15], `CC(C)C` [Isobutane] came in with an NOAEC of 7.12 mg/m3.
The compound `C=C(/C=C\C[C@@H](O)[C@@H](O)[C@H](O)C/C=C/C=C\[C@@H](O)C[C@@H]1O[C@H](C[C@@H](O)[C@H](O)C[C@H]2O[C@H]([C@H](O)[C@H](O)CC[C@H](O)/C=C/[C@H](C)[C@@H](O)C[C@]3(O)O[C@H]([C@@H](O)[C@@H](O)CCCCCCC[C@@]45C[C@@H](C)C[C@@](C)(O4)[C@@H](CCCCCCC[C@@H](O)C[C@H](O)[C@@H](O)[C@@H](O)[C@H]4O[C@H](C[C@H](O)[C@H](O)/C(C)=C/[C@H](O)CC[C@H](O)C(=O)N/C=C/C(=O)NCCCO)[C@H](O)[C@@H](O)[C@@H]4O)O5)C[C@@H](O)[C@H]3O)C[C@@H](O)[C@@H]2O)[C@@H](O)[C@H](O)[C@H]1O)CC[C@H](O)[C@@H](O)[C@H](O)[C@H](C)C[C@H]1O[C@H](/C=C\[C@@H](O)[C@H](O)C[C@@H]2C[C@@H]3C[C@H](O2)[C@@H](CC[C@H]2O[C@H](CN)C[C@H]2O)O3)[C@@H](O)[C@H](O)[C@H]1O` [Ostreocin-D] showed an LOAEL in [11] (acute, oral, gavage, M, ICR, clinical signs) of 0.2 mg/kg-day.
With `O=S(=O)([O-])c1ccc(N=Nc2c(O)ccc3cc(S(=O)(=O)[O-])ccc23)cc1.[Na+].[Na+]` [FD&C Yellow 6], the NOAEL in [2] (chronic, duration: 7 years, oral, F, Dog Other, no effects) stood at 500 mg/kg-day; in data set [4] (reproduction developmental, duration: 28 days, oral, diet, body weight), 375 mg/kg-day; in data set [4] (subchronic, duration: 90 days, oral, diet, M/F, histopathology: nonneoplastic) it was 500 mg/kg-day.
Take `CC(C)CCCCCCCOC(=O)c1ccccc1C(=O)OCCCCCCCC(C)C` [Diisodecyl phthalate]: in data set [2] (subchronic, duration: 13 weeks, Dog Other, histopathology: nonneoplastic), the NOAEL was 15 mg/kg-day.
`CN1CCC[C@H]1c1cccnc1` [(-)-Nicotine] gave an LOAEL in data set [7] (injection, intravenous, clinical signs) of 0.0035 mg/kg-day.
In [4] (subchronic, duration: 13 weeks, oral, diet), `CSCSSC` [2,3,5-Trithiahexane] had an NOEL of 0.3 mg/kg-day. Moreover, the NOAEL in data set [4] (setting [17]) turned out to be 0.23 mg/kg-day and the NOAEL under setting [17] turned out to be 0.23 mg/kg-day.
`Cc1cc(SC(=O)CC(C)C)c(C)o1` [2,5-Dimethyl-3-thioisovalerylfuran] displayed an NOAEL in data set [4] (subchronic, duration: 90 days) of 0.73 mg/kg-day and an NOAEL (subchronic, duration: 90 days) of 0.73 mg/kg-day.
For `NC(=O)c1ccc[n+]([C@@H]2O[C@H](CO)[C@@H](O)[C@H]2O)c1.[Cl-]` [Nicotinamide riboside chloride], the NOAEL was determined as 300 mg/kg-day in data set [2] (short-term, duration: 28 days, oral, gavage, M/F, Beagle, clinical chemistry); 325 mg/kg-day in data set [4] (developmental, duration: 15 days, oral, gavage, F, Sprague-Dawley, development); 300 mg/kg-day in [4] (subchronic, duration: 90 days, oral, gavage, M/F, Sprague-Dawley, body weight).
Turning to `C=C(C)[C@H]1CC=C(C)CC1` [D-Limonene], the NOAEL stood at 250 mg/kg-day in [4] (repeat dose other, histopathology: nonneoplastic); 250 mg/kg-day in data set [11] (gross pathology); 215 mg/kg-day in data set [11] (injection, intraperitoneal).
For the compound `ClC1=C(Cl)[C@]2(Cl)[C@@H]3[C@@H](Cl)[C@H]4O[C@H]4[C@@H]3C1(Cl)C2(Cl)Cl` [Heptachlor epoxide B], the NOAEL in data set [2] (chronic, duration: 2 years, oral, diet, M/F, Beagle, clinical chemistry) was 0.025 mg/kg-day; in [12] (F), 1.5 mg/kg-day; in [13] (chronic, duration: 25 weeks, oral, diet, M/F, development), 0.002 mg/kg-day.
As to `CCOC(=O)/C(C)=C/C=C/C(C)=C/C=C/C=C(C)/C=C/C=C(C)/C=C/C1=C(C)CCCC1(C)C` [8'-Apo-beta, psi-carotenoid acid, ethyl ester], the NOAEL in [4] (subchronic, histopathology: nonneoplastic) stood at 3 mg/kg-day. The LEL in data set [13] (subchronic, duration: 56 days, oral, diet, F, no effects) was 80 mg/kg-day.
In the case of `CC1=C[C@H]2O[C@@H]3[C@H](O)[C@@H](O)[C@](C)([C@@]2(CO)[C@H](O)C1=O)[C@]31CO1` [Nivalenol], in [13] (repeat dose other, organ weight), the LOAEL was found to be 0.36 mg/kg-day.
As to `CCS(=O)(=O)c1cccnc1S(=O)(=O)NC(=O)Nc1nc(OC)cc(OC)n1` [Rimsulfuron], the NOAEL in [2] (subchronic, duration: 90 days, oral, Dog Other, body weight) worked out at 9.63 mg/kg-day; in data set [4] (chronic, duration: 2 years, oral, body weight) it was 11.8 mg/kg-day; in [4] (reproduction developmental, body weight) it was 165 mg/kg-day; in data set [3] (reproduction developmental, mortality) it was 170 mg/kg-day. Also, the LD50 in data set [4] (acute, oral, mortality) is over 5000 mg/kg-day; in [8] (acute, unspecified, mortality), over 2000 mg/kg-day. In [8] (reproductive, feed), this compound registered an NOEC of 117 mg/kg-day.
For `COc1nccnc1C` [2-Methoxy-3-methylpyrazine], in [1], the LC50 was 245 mg/kg.
Regarding `Fc1ccc([C@@]2(Cn3cncn3)O[C@@H]2c2ccccc2Cl)cc1` [Epoxiconazole], the LD50 was 3160 mg/kg in data set [4] (acute, mortality); over 907 mg/kg in [6] (diet); over 2000 mg/kg in data set [6]. For the same compound, the NOAEL in data set [4] (reproduction developmental) is 2.3 mg/kg-day. The compound further yielded an NOEL in data set [6] (reproduction developmental) of 1 mg/kg-day.
Take `CC(O)C(=O)O` (configuration not stated) [Lactic acid]: the LEL in data set [13] (subchronic, duration: 42 days, oral, diet, Chicken, no effects) stood at 30000 mg/kg-day.
Turning to `O=C(O)CC(O)C(=O)O` (configuration not stated) [Malic acid], the LEL in data set [2] (chronic, duration: 104 weeks, M/F, Beagle, no effects) came out at 50000 mg/kg-day; in data set [12] (no effects) it was 23000 mg/kg-day; in data set [10] (duration: 28 days, M/F, no effects) it was 12000 mg/kg-day; in data set [13] (short-term, duration: 21 days, oral, diet, food consumption) it was 20000 mg/kg-day.
As for `CCN(CC)c1nc(C)cc(OP(=S)(OC)OC)n1` [Pirimiphos-methyl], the no-observed-adverse-effect level (NOAEL) came to 15 mg/kg-day in data set [4] (acute, clinical signs); 0.4 mg/kg-day in [4] (chronic, duration: 2 years, clinical signs); 2.1 mg/kg-day in data set [4] (subchronic, duration: 13 weeks, clinical signs). The compound further showed an LC50 in data set [9] of 0.2 µg/mL (≈ 0.655 µM).
Take `CCc1nccnc1C(C)=O` [1-(3-Ethylpyrazinyl)ethan-1-one]: the LC50 in data set [1] turned out to be 360 mg/kg.
The compound `CC(O)CO` (configuration not stated) [1,2-Propylene glycol] returned an NOEL in [4] (chronic, duration: 2 years) of 2500 mg/kg-day.
For the compound `CCOC(=O)c1ccoc1-c1ccccc1` [3-Furancarboxylic acid, 2-phenyl-, ethyl ester], the NOEL in data set [4] (setting [16]) is 13 mg/kg-day.

The NOAEL is the highest dose or exposure tested at which no adverse effect was seen. One may read the LOAEL as the lowest tested level that showed an adverse finding.
